Source: PubChem BioAssay AID2060602 (Molecular Pharmacology Branch, DTP, NCI, 2025)
Values joined by “and” are separate entries in the source; they are usually repeats but may differ in a detail not shown here. Equal entries are not always repeated.

Tested on: 648629-189-R-J1-PDC complex spheroids viability
Experiment: Anticancer human tumor 648629-189-R-J1-PDC patient-derived bladder carcinoma cell line growth inhibition [CLK]
Details: for viability, T/C: stronger effect = lower value
Procedure, shortened: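 Multi-cell-type spheroids combined patient-derived tumor cells with HUVEC endothelial cells and human mesenchymal stem cells. Paired agents were dosed in half-log steps down from about clinical Cmax, or from 10 microM where Cmax was unknown.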

[1] = curve of first compound, second compound 0.0316 µM
[2] = curve of first compound, second compound 0.1 µM
[3] = curve of first compound, second compound 0.316 µM
[4] = curve of first compound, second compound 1 µM
[5] = curve of first compound, second compound 3.16 µM
[6] = curve of first compound, second compound 10 µM
[7] = second compound 0.0316 µM, first compound 0.0316 µM
[8] = second compound 0.0316 µM, first compound 0.1 µM
[9] = second compound 0.0316 µM, first compound 0.316 µM
[10] = second compound 0.0316 µM, first compound 1 µM
[11] = second compound 0.0316 µM, first compound 3.16 µM
[12] = second compound 0.0316 µM, first compound 10 µM
[13] = second compound 0.1 µM, first compound 0.0316 µM
[14] = second compound 0.1 µM, first compound 0.1 µM
[15] = second compound 0.1 µM, first compound 0.316 µM
[16] = second compound 0.1 µM, first compound 1 µM
[17] = second compound 0.1 µM, first compound 3.16 µM
[18] = second compound 0.1 µM, first compound 10 µM
[19] = second compound 0.316 µM, first compound 0.0316 µM
[20] = second compound 0.316 µM, first compound 0.1 µM
[21] = second compound 0.316 µM, first compound 0.316 µM
[22] = second compound 0.316 µM, first compound 1 µM
[23] = second compound 0.316 µM, first compound 3.16 µM
[24] = second compound 0.316 µM, first compound 10 µM
[25] = second compound 1 µM, first compound 0.0316 µM
[26] = second compound 1 µM, first compound 0.1 µM
[27] = second compound 1 µM, first compound 0.316 µM
[28] = second compound 1 µM, first compound 1 µM
[29] = second compound 1 µM, first compound 3.16 µM
[30] = second compound 1 µM, first compound 10 µM
[31] = second compound 3.16 µM, first compound 0.0316 µM
[32] = second compound 3.16 µM, first compound 0.1 µM
[33] = second compound 3.16 µM, first compound 0.316 µM
[34] = second compound 3.16 µM, first compound 1 µM
[35] = second compound 3.16 µM, first compound 3.16 µM
[36] = second compound 3.16 µM, first compound 10 µM
[37] = second compound 10 µM, first compound 0.0316 µM
[38] = second compound 10 µM, first compound 0.1 µM
[39] = second compound 10 µM, first compound 0.316 µM
[40] = second compound 10 µM, first compound 1 µM
[41] = second compound 10 µM, first compound 3.16 µM
[42] = second compound 10 µM, first compound 10 µM
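For viability, T/C in this document: drug exposure lasted seven days before viability readout; 100% = DMSO vehicle control wells.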

Nc1ccn(C2OC(CO)C(O)C2(F)F)c(=O)n1 (stereo not drawn) + CN1CCN(c2cc(C(=O)Nc3cc4cc(-c5cnn(C)c5)ccc4cn3)ccn2)CC1
IC50 [1]: 52.9 nM
IC50 [2]: 49.8 nM
IC50 [3]: < 31.6 nM
IC50 [4]: < 31.6 nM
IC50 [5]: < 31.6 nM
IC50 [6]: < 31.6 nM
viability, T/C [7]: 65.2%
viability, T/C [8]: 31.1%
viability, T/C [9]: 11.9%
viability, T/C [10]: 5.88%
viability, T/C [11]: 5.69%
viability, T/C [12]: 4.49%
viability, T/C [13]: 67.7%
viability, T/C [14]: 22.8%
viability, T/C [15]: 10.1%
viability, T/C [16]: 5.67%
viability, T/C [17]: 4.53%
viability, T/C [18]: 3.3%
viability, T/C [19]: 32.1%
viability, T/C [20]: 22.7%
viability, T/C [21]: 13%
viability, T/C [22]: 7.45%
viability, T/C [23]: 9.18%
viability, T/C [24]: 5.35%
viability, T/C [25]: 0.19%
viability, T/C [26]: 0.38%
viability, T/C [27]: 1.02%
viability, T/C [28]: 0.31%
viability, T/C [29]: 0.14%
viability, T/C [30]: 1.01%
viability, T/C [31]: 0.09%
viability, T/C [32]: 1.1%
viability, T/C [33]: 0.11%
viability, T/C [34]: 0.09%
viability, T/C [35]: 0.1%
viability, T/C [36]: 0.39%
viability, T/C [37]: 0.12%
viability, T/C [38]: 0.13%
viability, T/C [39]: 0.17%
viability, T/C [40]: 0.17%
viability, T/C [41]: 0.28%
viability, T/C [42]: 0.17%

O=C(c1cc(Cc2n[nH]c(=O)c3ccccc23)ccc1F)N1CCN(C(=O)C2CC2)CC1 + CN1CCN(c2cc(C(=O)Nc3cc4cc(-c5cnn(C)c5)ccc4cn3)ccn2)CC1
IC50 [1]: > 10000 nM
IC50 [2]: > 10000 nM
IC50 [3]: < 31.6 nM
IC50 [4]: < 31.6 nM
IC50 [5]: < 31.6 nM
IC50 [6]: < 31.6 nM
viability, T/C [7]: 105%
viability, T/C [8]: 106%
viability, T/C [9]: 104%
viability, T/C [10]: 100%
viability, T/C [11]: 86.5%
viability, T/C [12]: 72.1%
viability, T/C [13]: 115%
viability, T/C [14]: 111%
viability, T/C [15]: 110%
viability, T/C [16]: 98%
viability, T/C [17]: 84.4%
viability, T/C [18]: 68.2%
viability, T/C [19]: 37.2%
viability, T/C [20]: 39.2%
viability, T/C [21]: 43.6%
viability, T/C [22]: 46%
viability, T/C [23]: 42%
viability, T/C [24]: 32.6%
viability, T/C [25]: 0.41%
viability, T/C [26]: 0.25%
viability, T/C [27]: 0.62%
viability, T/C [28]: 0.21%
viability, T/C [29]: 0.92%
viability, T/C [30]: 1.08%
viability, T/C [31]: 0.08%
viability, T/C [32]: 0.44%
viability, T/C [33]: 0.12%
viability, T/C [34]: 0.15%
viability, T/C [35]: 0.79%
viability, T/C [36]: 0.38%
viability, T/C [37]: 0.08%
viability, T/C [38]: 0.14%
viability, T/C [39]: 0.72%
viability, T/C [40]: 0.15%
viability, T/C [41]: 0.23%
viability, T/C [42]: 0.5%

O=c1[nH]cc(F)c(=O)[nH]1
viability, T/C (compound 0.0316 µM): 101% and 97.3%
viability, T/C (compound 0.1 µM): 92.7% and 84.2%
viability, T/C (compound 0.316 µM): 80.1% and 69.3%
viability, T/C (compound 1 µM): 57.8% and 36%
viability, T/C (compound 3.16 µM): 29.1% and 31.9%
viability, T/C (compound 10 µM): 19.3% and 26.1%
IC50 (curve of compound): 1310 nM and 632 nM

C=C(F)C(=O)N1CCN(c2nc(OCC3CCCN3C)nc3c2CCN(c2cccc4cccc(Cl)c24)C3)CC1CC#N (stereo not drawn)
viability, T/C (compound 0.0316 µM): 103% and 97.9%
viability, T/C (compound 0.1 µM): 97.9% and 98.3%
viability, T/C (compound 0.316 µM): 101% and 99%
viability, T/C (compound 1 µM): 87.8% and 95.9%
viability, T/C (compound 3.16 µM): 98% and 93.7%
viability, T/C (compound 10 µM): 0.23% and 0.2%
IC50 (curve of compound): 5550 nM and 5420 nM
